{
  "source": "patent US20060160989A1",
  "about": "“Polypeptide useful as antiallergic/antiasthmatic activity, methods for the preparation thereof, pharmaceutical compositions containing such polypeptide and use thereof” (COUNCIL OF SCIENTIC AND INDUSTRIAL RESEARCH, priority 2002, published 2006)",
  "key": {"[1]": {"system": "passive cutaneous anaphylaxis (PCA)", "test": "Passive cutaneous anaphylaxis (PCA) test in rats", "format": "in vivo", "settings": "for % Anti-PCA activity: rats"}, "[2]": {"system": "Sensitised mast cells", "test": "Mast cell degranulation by egg albumin in sensitised mast cells (immunological)", "format": "in vivo, rats", "excerpt": "(§1) Peptide 96/199 is related to the sequence of IgE Fc fragment."}, "[3]": {"system": "Normal mast cells", "test": "Mast cell degranulation by comp 48/80 in normal mast cells (non-immunological)", "format": "in vivo, rats", "excerpt": "as §1"}, "[4]": {"system": "sensitised guinea pig ileum", "test": "Antigen (egg albumin) induced contraction of sensitised guinea pig ileum (Schultz-Dale phenomenon)", "protocol": "(§2) This activity of peptide 96/199 was comarable with disodium cromoglycate (50 mg/kg ip) which is a standard antiallergic drug effective by inhalation."}, "[5]": {"system": "normal guinea pigs", "test": "Aerosol test, histamine, guinea pigs", "format": "in vivo"}, "[6]": {"system": "sensitised guinea pigs", "test": "Aerosol test, egg-albumin, sensitised guinea pigs", "format": "in vivo", "protocol": "as §2"}, "[7]": {"test": "Other pharmacological studies (cardiovascular, CNS, anti-inflammatory, diuretic)", "format": "in vivo", "excerpt": "Other Pharmacological Studies: Peptide 96-199 was further evaluated for its cardiovascular, Central Nervous System (CNS), anti-inflammatory, diuretic activities."}, "[8]": {"system": "leucine *amino-peptidase", "settings": "enzymatic hydrolysis with leucine aminopeptidase, cited from earlier work"}, "[9]": {"settings": "0.5 pro (0.1 × 5 d) mg/kg × days"}, "[10]": {"settings": "1.0 pro (0.2 × 5 d) mg/kg × days"}, "[11]": {"settings": "2.5 pro (0.5 × 5 d) mg/kg × days"}, "[12]": {"settings": "5.0 pro (1.0 × 5 d) mg/kg × days"}, "[13]": {"settings": "50.0 pro (10.0 × 5 d) mg/kg × days"}},
  "note": "Where two headings read alike, the source gives them in different places.",
  "data": [
    {"compound": "L-alanyl-glycyl-glycyl-L-aspartyl-sar-L-l ys [96/199]", "values": [
      {"measurement": "% Anti-PCA activity", "setting": "[1]; 0.5 mg/kg PO", "value": 43, "unit": "%"},
      {"measurement": "% Anti-PCA activity", "setting": "[1]; 1.0 mg/kg PO", "value": 48, "unit": "%"},
      {"measurement": "% Anti-PCA activity", "setting": "[1]; 2.5 mg/kg PO", "value": 74, "unit": "%"},
      {"measurement": "% Anti-PCA activity", "setting": "[1]; 5.0 mg/kg PO", "value": 82, "unit": "%"},
      {"measurement": "% Protection, sensitised mast cells (Immunological: Egg albumin)", "setting": "[2]; [9]", "value": 34, "unit": "%"},
      {"measurement": "% Protection, sensitised mast cells (Immunological: Egg albumin)", "setting": "[2]; [10]", "value": 47, "unit": "%"},
      {"measurement": "% Protection, sensitised mast cells (Immunological: Egg albumin)", "setting": "[2]; [11]", "value": 66, "unit": "%"},
      {"measurement": "% Protection, sensitised mast cells (Immunological: Egg albumin)", "setting": "[2]; [12]", "value": 72, "unit": "%"},
      {"measurement": "% Protection, normal mast cells (Noninnunological: Comp. 48/80)", "setting": "[3]; [9]", "value": 39, "unit": "%"},
      {"measurement": "% Protection, normal mast cells (Noninnunological: Comp. 48/80)", "setting": "[3]; [10]", "value": 55, "unit": "%"},
      {"measurement": "% Protection, normal mast cells (Noninnunological: Comp. 48/80)", "setting": "[3]; [11]", "value": 77, "unit": "%"},
      {"measurement": "% Protection, normal mast cells (Noninnunological: Comp. 48/80)", "setting": "[3]; [12]", "value": 84, "unit": "%"},
      {"measurement": "% Protection to ileum contraction induced by egg albumin", "setting": "[4]; concentration 1.0 (μg/mL)", "value": 60, "unit": "%"},
      {"measurement": "% Protection to ileum contraction induced by egg albumin", "setting": "[4]; concentration 2.0 (μg/mL)", "value": 78, "unit": "%"},
      {"measurement": "% Protection to ileum contraction induced by egg albumin", "setting": "[4]; concentration 3.0 (μg/mL)", "value": 92, "unit": "%"},
      {"measurement": "% Protection, Histamine aerosol", "setting": "[5]; 2.5 mg/kg po", "value": "Nil"},
      {"measurement": "% Protection, Histamine aerosol", "setting": "[5]; 5.0 mg/kg po", "value": 10, "unit": "%"},
      {"measurement": "% Protection, Egg-albumin aerosol", "setting": "[6]; 2.5 mg/kg po", "value": 55, "unit": "%"},
      {"measurement": "% Protection, Egg-albumin aerosol", "setting": "[6]; 5.0 mg/kg po", "value": 61, "unit": "%"},
      {"measurement": "any other pharmacological activity", "setting": "[7]; in vivo", "value": "devoid of any other pharmacological activity"},
      {"measurement": "cardiovascular, Central Nervous System (CNS), anti-inflammatory, diuretic activities", "setting": "[7]; up to a dose of 10 mg/kg", "value": "No significant effects"}
    ]},
    {"compound": "leucine enkephaline", "values": [
      {"measurement": "half life", "setting": "[8]; with beta-Cyclodextrins", "value": 75, "unit": "m."},
      {"measurement": "half life", "setting": "[8]; without cyclodextrin", "value": 44, "unit": "min"}
    ]},
    {"compound": "O=C([O-])c1cc(=O)c2c(OCC(O)COc3cccc4oc(C(=O)[O-])cc(=O)c34)cccc2o1.[Na+].[Na+]", "note": "[DSCG, disodium cromoglycate, reference compound]", "values": [
      {"measurement": "anti PCA activity", "setting": "[1]; 50 mg/kg by nasal route", "value": 81, "unit": "%"},
      {"measurement": "% Anti-PCA activity", "setting": "[1]; 50.0 mg/kg IP", "value": 77, "unit": "%"},
      {"measurement": "% Protection, sensitised mast cells (Immunological: Egg albumin)", "setting": "[2]; [13]", "value": 71, "unit": "%"},
      {"measurement": "% Protection, normal mast cells (Noninnunological: Comp. 48/80)", "setting": "[3]; [13]", "value": 72, "unit": "%"},
      {"measurement": "% Protection to ileum contraction induced by egg albumin", "setting": "[4]; concentration 1.0 (μg/mL)", "value": "No block"},
      {"measurement": "% Protection to ileum contraction induced by egg albumin", "setting": "[4]; concentration 2.0 (μg/mL)", "value": 18, "unit": "%"},
      {"measurement": "% Protection to ileum contraction induced by egg albumin", "setting": "[4]; concentration 3.0 (μg/mL)", "value": 59, "unit": "%"},
      {"measurement": "% Protection, Histamine aerosol", "setting": "[5]; 50 mg/kg ip", "value": 17, "unit": "%"},
      {"measurement": "% Protection, Egg-albumin aerosol", "setting": "[6]; 50 mg/kg ip", "value": 64, "unit": "%"}
    ]}
  ]
}
